Measured values from PMC8016166, “Identification of a Potent and Selective 5-HT1A Receptor Agonist with In Vitro and In Vivo Antinociceptive Activity” (ACS Chemical Neuroscience, 2020).

Tests used:
Male Swiss CB1 mice = test: Formalin test; assay type: in vivo, mouse
Description: Male Swiss CB1 mice (Envigo, S. Pietro al Natisone (UD)) weighing 25–30 g were used. The animals were kept at a constant room temperature (25 ± 1 °C) under a 12:12 h light and dark cycle, with free access to food and water. Each mouse was used for only one experiment. […] All the tests were performed blind to treatment.
The formalin (5%, 10 μL; Sigma-Aldrich) was injected subcutaneously into the plantar side of the right hind paw.[68] After injection, the mice were immediately placed in a plexiglas box: the total time (in seconds) spent on licking or biting the injected hind paw was recorded every 5 min at selected intervals, 0–10 (phase I) and 10–60 (phase II) min, in the different experimental groups, as an indicator of nociceptive behavior. […] A mean response was then calculated for each phase. […] A vehicle solution containing 10% DMSO was given as a control. Morphine was used as positive control. The test compound and vehicle were […] (i.p.) administered (5 mL/kg) 15 min before the formalin. […] The data are expressed as mean values (SEM). Analyses of variance (two-way repeated measures ANOVA followed by post hoc Bonferroni test) were performed to assess significance using the Instat 3.0 software (GraphPad Software, San Diego, CA). p < 0.05 was considered significant.

MDCK-MDR1 monolayers = system: MDCK-MDR1 monolayers; design: method as in PMID 30043643; conditions: cited from earlier work

c1ccc(C2(c3ccccc3)OCC(CNCCOc3ccccc3-c3ccncc3)O2)cc1 (racemic) [rac-1, N-[(2,2-diphenyl-1,3-dioxolan-4-yl)methyl]-2-[2-(pyridin-4-yl)phenoxy]ethan-1-ammonium hydrogenoxalate]
analgesic effect in first and second phases of the formalin test (Male Swiss CB1 mice; 10 mg/kg i.p., formalin 5% 10 μL intraplantar): significant analgesic effects
analgesic effect after pretreatment with WAY-100635 (Male Swiss CB1 mice; 1 10 mg/kg i.p., WAY-100635 3 mg/kg i.p. 30 min before, second phase): prevented its analgesic effect
efflux ratio (MDCK-MDR1 monolayers; MDCK-MDR1 monolayers): low
permeation of MDCK-MDR1 monolayers mimicking the BBB (MDCK-MDR1 monolayers): permeate, by passive diffusion
